As usually defined, the remaining activity is the share of the control activity or signal that is left under treatment. A word on the IC50: it is the midpoint of a concentration-inhibition curve.

SMILES strings stand for the structures. Values joined by “and” are separate entries in the source; they are usually repeats but may differ in a detail not shown here. Identical values can stand only once. Like-named read-outs stand apart in the source and are kept apart here.

The target of one assay is T1, AtDHDPR1 (Arabidopsis thaliana, UniProt O80574).
T1 construct: made in house
T1 sequence (O80574 52-347): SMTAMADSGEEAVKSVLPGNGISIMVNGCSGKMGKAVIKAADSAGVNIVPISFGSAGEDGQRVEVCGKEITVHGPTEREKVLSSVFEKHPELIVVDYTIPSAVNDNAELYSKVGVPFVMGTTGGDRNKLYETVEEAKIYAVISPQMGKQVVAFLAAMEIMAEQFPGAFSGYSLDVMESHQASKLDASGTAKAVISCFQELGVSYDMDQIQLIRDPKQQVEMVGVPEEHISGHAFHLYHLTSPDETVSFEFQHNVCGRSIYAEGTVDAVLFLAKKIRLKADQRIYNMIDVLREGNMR
The assay can be described thus: DHDPR enzyme inhibition assay, recombinant AtDHDPR1. Format: biochemical. The method, then:
(§1) Briefly, reaction mixtures were incubated at 30℃ for 12 min before a second 60-s incubation following the addition of excess E. coli DHDPS (51 µg ml^−1) for generation of the DHDP substrate. The relevant DHDPR isoform (2.6 µg ml^−1) was added to initiate the reaction, and substrate turnover measured spectrophotometrically at 340 nm via the associated oxidation of the cofactor NADPH. Experiments were performed in technical triplicates.

A further assay addresses T2, AtDHDPS1 (Arabidopsis thaliana, UniProt Q9LZX6).
T2 construct: made in house
T2 sequence (Q9LZX6 40-365): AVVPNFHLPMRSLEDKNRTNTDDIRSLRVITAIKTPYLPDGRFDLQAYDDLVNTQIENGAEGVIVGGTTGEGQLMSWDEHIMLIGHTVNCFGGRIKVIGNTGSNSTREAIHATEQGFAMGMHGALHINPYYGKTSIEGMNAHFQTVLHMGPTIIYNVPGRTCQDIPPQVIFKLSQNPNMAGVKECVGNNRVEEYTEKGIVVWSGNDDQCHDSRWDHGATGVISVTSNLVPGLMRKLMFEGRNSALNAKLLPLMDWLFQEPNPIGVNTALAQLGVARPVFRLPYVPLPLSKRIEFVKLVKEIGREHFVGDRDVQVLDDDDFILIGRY
The assay can be described thus: DHDPS enzyme inhibition assay, recombinant AtDHDPS1. The assay is classed as biochemical.

For another assay, the system named is AtDHDPR. Put plainly: DHDPR enzyme inhibition, comparisons over both isoforms. Format: biochemical, Arabidopsis thaliana. The method, then: as §1
In assay [1] the target is T3, AtDHDPS2 (Arabidopsis thaliana, UniProt Q9FVC8).
T3 construct: made in house
T3 sequence (Q9FVC8 40-365): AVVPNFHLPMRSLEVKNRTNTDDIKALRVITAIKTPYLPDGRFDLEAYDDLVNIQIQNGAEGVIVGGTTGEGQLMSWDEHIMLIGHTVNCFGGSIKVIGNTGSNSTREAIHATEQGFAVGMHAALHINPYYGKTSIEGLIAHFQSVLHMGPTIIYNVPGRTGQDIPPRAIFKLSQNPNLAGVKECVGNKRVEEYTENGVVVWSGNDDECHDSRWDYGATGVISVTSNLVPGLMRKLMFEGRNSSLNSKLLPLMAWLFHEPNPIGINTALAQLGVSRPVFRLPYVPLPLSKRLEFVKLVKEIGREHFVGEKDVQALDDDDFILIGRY
The assay can be described thus: DHDPS enzyme inhibition assay, recombinant AtDHDPS2. The assay is classed as biochemical.

A further assay concerns the target T4, AtDHDPR2 (Arabidopsis thaliana, UniProt Q8LB01).
T4 construct: made in house
T4 sequence (Q8LB01 54-349): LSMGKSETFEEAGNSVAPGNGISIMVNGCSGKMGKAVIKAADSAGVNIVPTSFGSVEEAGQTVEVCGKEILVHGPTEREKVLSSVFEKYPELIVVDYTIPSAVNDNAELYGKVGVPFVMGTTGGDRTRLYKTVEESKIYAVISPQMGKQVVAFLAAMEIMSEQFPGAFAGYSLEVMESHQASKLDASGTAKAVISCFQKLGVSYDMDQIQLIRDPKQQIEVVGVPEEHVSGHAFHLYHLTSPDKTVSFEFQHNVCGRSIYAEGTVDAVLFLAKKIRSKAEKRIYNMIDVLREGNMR
Put plainly: DHDPR enzyme inhibition assay, recombinant AtDHDPR2. The assay is classed as biochemical. As for the experimental part: as §1

Assay [2] concerns the target T3, AtDHDPS2. Also on record: method as in Soares da Costa et al., 2021. Particulars: previously reported; ref Soares da Costa et al., 2021; cited from earlier work.
Another assay relates to Lolium rigidum. Put plainly: Herbicidal activity, pre-emergence treatment of soil-grown plants. The assay is classed as in vivo. As for the experimental part:
. Pre-wet seed-raising soil (pH 5.5) (Biogro, Dandenong South, VIC, Australia) supplemented with 0.22% (wt/wt) Nutricote N12 Micro 140 day-controlled release fertiliser (Yates, Sydney, NSW, Australia) was used. Ten seeds were sown at a depth of 0.5 cm into pots of pre-wet soil, following stratification at 4℃ for 21 days in the dark. Compounds dissolved in DMSO were diluted to working concentrations in H2O containing 0.01% (vol/vol) Agral (Syngenta, North Ryde, NSW, Australia) to a final DMSO concentration of 2% (vol/vol). Treatments were given by pipetting 2.0 ml of MBDTA-2, vehicle control or positive control (chlorosulfuron PESTANAL [Sigma-Aldrich, North Ryde, NSW, Australia]) directly onto seeds upon sowing and on each of the subsequent 2 days. Plants were grown in a chamber at 22℃ under a 16 hr light (100 µmol m^−2 s^−1)/8 hr dark schedule for 14 days before photos were taken. Roots and shoots were separated prior to drying at 70℃ for 72 hr. Experiments were performed in biological triplicates.

The mark [3] stands for this setting: [HBDTA-2] 0.000125 M, replicates 1-3.
The mark [4] stands for this setting: [HBDTA-2] 0.0005 M, replicates 1-3.
[5] abbreviates: [HBDTA] 0.000125 M, replicates 1-3.
Setting [6] is: [MBDTA-2] 0.000125 M, limiting substrate and cofactor, replicates 1-3.
Setting [7] is: 1200 mg l^−1, three pre-emergence treatments, 14 days, vs vehicle.
The mark [8] stands for this setting: Treated, 1200 mg l^−1, biological triplicates.

`O=C(O)CN1C(=O)S/C(=C\c2ccc(O)cc2)C1=O` [HBDTA, (Z)-2-(5-(4-hydroxybenzylidene)-2,4-dioxothiazolidin-3-yl)acetic acid]: the remaining activity at 125 µM on AtDHDPR1 (setting [3]) stood at 83.9%; on AtDHDPS1 (setting [5]) it was 31.1%; at AtDHDPS2 [1] (setting [5]), 37%; at AtDHDPR2 (setting [3]), 65.7%. On AtDHDPR1 ([HBDTA-2] 0.00025 M, replicates 1-3), the remaining activity at 250 µM was 8.06%. Besides, the remaining activity at 500 µM on AtDHDPR1 (setting [4]) and at AtDHDPR2 (setting [4]) was 0% each time. In addition, the IC50 at AtDHDPR1 (substrate and cofactor at limiting concentrations, read-out: IC50 against AtDHDPR1) is 169 ± 0.92 µM; at AtDHDPS1 (recombinant enzyme), 100 ± 0.95 µM; at AtDHDPS2 [1] (recombinant enzyme), 105 ± 1.04 µM; at AtDHDPR2 (substrate and cofactor at limiting concentrations, read-out: IC50 against AtDHDPR2), 155 ± 0.9 µM. In addition, the “fold less potent at the DHDPR target site relative to MBDTA-2” value with AtDHDPR (ratio of IC50 values) was greater than 18 fold.

For the molecule `COc1ccc(/C=C2\SC(=O)N(CC(=O)O)C2=O)cc1` [MBDTA-2, (Z)-2-(5-(4-methoxybenzylidene)-2,4-dioxothiazolidin-3-yl)acetic acid], the “fold greater IC50 with excess vs limiting substrate and cofactor” value at AtDHDPR1 (AtDHDPR1) was found to be 10 fold; at AtDHDPR2 (AtDHDPR2) it was 8 fold. Further, the IC50 at AtDHDPR1 (IC50 against AtDHDPR1, excess substrate and nucleotide cofactor, 10-fold above KM) is 72.7 ± 1.07 µM; on AtDHDPR1 (IC50 against AtDHDPR1, substrate and cofactor at limiting concentrations), 6.92 ± 0.92 µM; at AtDHDPS2 [2], 64 ± 1 µM; on AtDHDPR2 (IC50 against AtDHDPR2, excess substrate and nucleotide cofactor, 10-fold above KM), 69.5 ± 1.06 µM; at AtDHDPR2 (IC50 against AtDHDPR2, substrate and cofactor at limiting concentrations) it was 8.58 ± 1.19 µM. Moreover, the remaining activity at 125 µM stood at 9.11% at AtDHDPR1 (setting [6]); 7.04% on AtDHDPR1 ([MBDTA-2] 0.000125 M, saturating substrate and cofactor, replicates 1-3); 0% at AtDHDPR2 (setting [6]). The mechanism of inhibition entry with AtDHDPR (from IC50 shift with excess substrate and cofactor) is given as “competitive inhibitor”. In the assay on Lolium rigidum (1200 mg l^−1), the “effect on germination and growth” value is “inhibition of plant germination and growth”. In addition, in the assay on Lolium rigidum (setting [7]), the “fold reduction in root dry weight” value was ~ 2 fold. The “fold reduction in shoot dry weight” value with Lolium rigidum (setting [7]) is ~ 5 fold. In the assay on Lolium rigidum (setting [7]), the “fold reduction in shoot fresh weight” value is ~ 4 fold. Moreover, the “Dry Weight, Roots” value with Lolium rigidum (setting [8]) was 7 mg and 10 mg. Further, the “Dry Weight, Shoots” value with Lolium rigidum (setting [8]) was 10 mg and 8 mg. Further, in the assay with Lolium rigidum (setting [8]), the “Fresh Weight, Roots” value is 44 mg and 33 mg and 58 mg. Also, the “Fresh Weight, Shoots” value in the assay with Lolium rigidum (setting [8]) was 71 mg and 107 mg and 109 mg. Further, the remaining activity at 250 µM on AtDHDPR2 ([MBDTA-2] 0.00025 M, limiting substrate and cofactor, replicates 1-3) amounted to 0%. For the same molecule, at AtDHDPR2 ([MBDTA-2] 0.0005 M, saturating substrate and cofactor, replicates 1-3), the remaining activity at 500 µM is 0.507%.

The values above are taken from paper PMC9208756, “A dual-target herbicidal inhibitor of lysine biosynthesis” (eLife, 2022).
